Measurements as given in patent publication US12697337B2, “Solid dispersions” (InventisBio Co., Ltd., priority 2021, dated 2026).

How the values were obtained:
[1] = Solid state stability of Form B; format: physicochemical; details: for Purity-7 d (Area %): open, 7 days
Method: Solid State Stability of Form B: About 10 mg of Form B was open placed at 40° C./75% RH and 60° C. for 7 days and at 25° C./92.5% RH for 10 days, respectively. Prepare samples in duplicate (n =2) per condition. The solids were analyzed by XRPD and HPLC (only for 40° C./75% RH and 60° C.).

[2] = Dynamic moisture sorption analysis (DVS); format: physicochemical
Method: Dynamic Moisture Sorption Analysis (DVS)
Small scale up of Form B: Form B was small scaled up for DVS analysis, solubility and stability studies. 103.02 mg of Compound 1 in Form A was dissolved in 5 mL of MeOH (48V) at RT. After filtration, 10 mL of water was added into the filtrate. Precipitation occurred quickly. The suspension was kept stirring at RT for about 2 hours. Solid samples were collected by filtration, dried under vacuum at 50° C. overnight. 94.16 mg solid was obtained with a yield of 91%. This solid was used for the DVS testing.

[3] = 1-week stability evaluation of SDD; format: physicochemical; details: for Appearance / Purity (%) / XRPD: 1 week; for Initial purity (%): before storage
Method: A brief description of the methods used for PLM, XRPD, Purity and mDSC analysis of the above SDD samples is shown below. • PLM analysis of the SDD samples were conducted using Nikon LV100POL equipped with 5 megapixel CCD, with the physical lens set at 20×. • For XRPD analysis, samples were spread onto the Si-substrate for XRPD test using the parameters as below: Tube: Cu: K-Alpha (λ=1.5418 Å); Generator: Voltage: 40 kV; Current: 40 mA; Scan Scope: 2 or 3 to 40 deg; Time/step(s) 0.06 s; Total time(s) 120 s or 117.36 s. • For mDSC analysis, SDD powders were weighed into Tzero aluminum sample pan from TA Instruments covered by pinhole lid for mDSC test using the parameters as below: Start temperature at 30° C.; Modulate +/−1° C. every 60 seconds; Ramp 2° C./min to 300° C. • The UPLC method used for the assay and purity analysis above is UPLC Method 1, which is shown below:
Appropriate quantity of SDDs and crystalline Compound 1 (Form B) were placed into 40-mL vials respectively.
The samples (closed) were covered by plastic cap tightly and sealed by parafilm and samples (open) were just covered by aluminum foil with pinholes. Then they were stored at 2-8° C., 25° C./60% RH and 40° C./75% RH stability chamber respectively for 1 week. The samples were analyzed by XRPD to check the physical stability, and meanwhile dissolved with diluent for UPLC analysis (UPLC Method 1) to check the chemical stability.

[4] = PCT/CN2020/137276 and PCT/CN2019/126230; cited from earlier work
[5] = Dissolution evaluation in FaSSIF medium; format: physicochemical
Method: Dissolution evaluation in FaSSIF medium: To evaluate in-vitro release performance of SDDs, dissolution in FaSSIF (pH=6.5±0.05) was performed, and the crystalline Compound 1 (Form B) was also tested as control.
Appropriate amount of Compound 1 or SDD (SDD-0 to SDD-8) was weighed into 40-mL glass vials respectively, and then added 10 mL of FaSSIF medium to a target API concentration of 1 mg/mL, followed by hand shake to suspend well. Place the glass bottle on 37° C. hot-stage by stirring magnetically at 200 rpm. At each time point of 10 min, 20 min, 40 min, 60 min and 120 min, 500 μL suspension was pipetted respectively and centrifuged (14,000 rpm, 3 min) to isolate supernatant and dilute with diluent for UPLC analysis. Finally, the pH value of solution (120 min) were measured by pH meter.
The UPLC method used for the dissolution analysis above is UPLC Method 2, which is shown below: […]

[6] = biological target: KRAS G12C (Homo sapiens, UniProt P01116, G12C); details: as described in previous applications; cited from earlier work
Sequence of KRAS G12C (P01116 1-188 isoform P01116-2 G12C): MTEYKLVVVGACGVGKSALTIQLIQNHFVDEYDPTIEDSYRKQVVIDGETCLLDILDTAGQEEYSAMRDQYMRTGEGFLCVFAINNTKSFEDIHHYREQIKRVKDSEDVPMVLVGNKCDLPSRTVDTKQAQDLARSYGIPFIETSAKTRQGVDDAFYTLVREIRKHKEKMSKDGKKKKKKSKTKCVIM

[7] = test system: various cancers; details: as described in previous applications; cited from earlier work
[8] = pKa measurement of Compound 1; format: physicochemical; details: measured pKa; free base
Text: Compound 1 has a measured pKa of around 1 and typically exists in a free base form. Unless otherwise explicitly stated to the contrary, Compound 1 herein should be understood as existing in its free base form as opposed to a salt formed with an acid or base. The synthesis and utility of Compound 1 has been described in Applicant's previous applications, such as International Application Nos. PCT/CN2020/091274, filed May 20, 2020, published as WO2020/233592, PCT/CN2020/137276, filed Dec. 17, 2020, and PCT/CN2019/126230, filed Dec. 18, 2019, the contents of each of which are herein incorporated by reference in their entireties. […] PCT/CN2020/137276 and PCT/CN2019/126230 also describe various isolated forms, substantially pure forms, and/or solid forms of Compound 1 and their preparation methods.

[9] = Table 6, FaSSIF (10 mL) pH 6.5, 37° C., target API 1 mg/mL
[10] = Table 11, FaSSIF (10 mL) pH 6.5

With `C=CC(=O)N1C[C@H](C)N(c2nc(=O)n(-c3c(C4CC4)ncnc3C3CC3)c3nc(-c4c(N)cccc4F)c(F)cc23)C[C@H]1C` [Compound 1 (Form B)] the XRPD ([1]; 25° C./92.5% RH, after 10 d) was “Unchanged”, the chemical stability ([1]; 40° C./75% RH for 7 days) was “chemically stable” and the XRPD ([1]; 40° C./75% RH, after 7 d) was “Unchanged”. The “Purity-7 d (Area %)” value ([1]; 40° C./75% RH) was 98.97 Area %, the purity decrease ([1]; 60° C. for 7 days) was 0.16% and the XRPD ([1]; 60° C., after 7 d) was “Unchanged”. The “Purity-7 d (Area %)” value ([1]; 60° C.) was 98.82 Area %, the physical stability ([1]; at test conditions (40° C./75% RH, 60° C., 25° C./92.5% RH)) was “physically stable” and the “Initial Purity (Area %)” value ([1]; before storage) was 98.98 Area %. The “water absorbed (DVS)” value ([2]; 0-80% RH, 25° C.) was ~ 0.84%, the “crystal form after DVS testing” value ([2]; XRPD after DVS) was “without changing of crystal form” and the Appearance ([3]; Table 8, 2-8° C., closed) was “Yellow powder”. For the same molecule, the “Purity (%)” value ([3]; Table 8, 2-8° C., closed) was 98.81%, the XRPD ([3]; Table 8, 2-8° C., closed) was “Crystal” and the Appearance ([3]; Table 8, 25° C./60% RH, open) was “Yellow powder”. The “Purity (%)” value ([3]; Table 8, 25° C./60% RH, open) was 98.86%, the XRPD ([3]; Table 8, 25° C./60% RH, open) was “Crystal” and the Appearance ([3]; Table 8, 40° C./75% RH, open) was “Yellow powder”. For the same molecule, the “Purity (%)” value ([3]; Table 8, 40° C./75% RH, open) was 98.79%, the XRPD ([3]; Table 8, 40° C./75% RH, open) was “Crystal” and the “Initial purity (%)” value ([3]; Table 8) was 98.75%. The Appearance ([3]; Table 12, 2-8° C., closed) was “Yellow powder”, the “Purity (%)” value ([3]; Table 12, 2-8° C., closed) was 98.81% and the XRPD ([3]; Table 12, 2-8° C., closed) was “Crystal”. For the same molecule, the Appearance ([3]; Table 12, 25° C./60% RH, open) was “Yellow powder”, the “Purity (%)” value ([3]; Table 12, 25° C./60% RH, open) was 98.86% and the XRPD ([3]; Table 12, 25° C./60% RH, open) was “Crystal”. The Appearance ([3]; Table 12, 40° C./75% RH, open) was “Yellow powder”, the “Purity (%)” value ([3]; Table 12, 40° C./75% RH, open) was 98.79% and the XRPD ([3]; Table 12, 40° C./75% RH, open) was “Crystal”. The “Initial purity (%)” value ([3]; Table 12) was 98.75%, the “relative stability among crystalline Forms A, B, C, D” value [4] was “more stable crystalline form” and the “API concentration in dissolution medium, 10 min” value (from here on “API concentration … 10 min”) [5, 9] was 12.5 µg/mL. For the same molecule, the “API concentration in dissolution medium, 20 min” value [5, 9] was 13.8 µg/mL, the “API concentration in dissolution medium, 40 min” value (“API concentration … 40 min” for short) [5, 9] was 15.0 µg/mL and the “API concentration in dissolution medium, 60 min” value (“API concentration … 60 min” for short) [5, 9] was 15.5 µg/mL. For the same molecule, the “API concentration in dissolution medium, 120 min” value (“API concentration … 120 min” for short) [5, 9] was 15.9 µg/mL, the pH ([5]; Table 6, pH value of solution at 120 min of FaSSIF dissolution) was 6.42 and the “API concentration … 10 min” value [5, 10] was 10.8 µg/mL. For the same molecule, the “API concentration in dissolution medium, 20 min” value [5, 10] was 12.5 µg/mL, the “API concentration … 40 min” value [5, 10] was 14.3 µg/mL and the “API concentration … 60 min” value [5, 10] was 14.2 µg/mL. For the same molecule, the “API concentration … 120 min” value [5, 10] was 14.9 µg/mL, the pH ([5]; Table 11, pH of solution after FaSSIF dissolution) was 6.41 and the “API concentration … 10 min” value ([5]; Table 15, FaSSIF (10 mL)) was 8.1 µg/mL. For the same molecule, the “API concentration in dissolution medium, 20 min” value ([5]; Table 15, FaSSIF (10 mL)) was 8.4 µg/mL, the “API concentration … 40 min” value ([5]; Table 15, FaSSIF (10 mL)) was 9.0 µg/mL and the “API concentration … 60 min” value ([5]; Table 15, FaSSIF (10 mL)) was 9.1 µg/mL. The “API concentration … 120 min” value ([5]; Table 15, FaSSIF (10 mL)) was 9.7 µg/mL and the pH ([5]; Table 15, pH of solution after FaSSIF dissolution) was 6.48.

In the case of `C=CC(=O)N1C[C@H](C)N(c2nc(=O)n(-c3c(C4CC4)ncnc3C3CC3)c3nc(-c4c(N)cccc4F)c(F)cc23)C[C@H]1C` [Compound 1], the “KRAS G12C inhibition” value [6] is given as “potent KRAS G12C inhibitor”, the “efficacy in in vivo mouse models” value [7] is given as “effective in treating various cancers” and the pKa [8] is given as ~1.
